According to ChEMBL document CHEMBL1139672, “1,2,3,4-Tetrahydroisoquinolinyl sulfamic acids as phosphatase PTP1B inhibitors” (Bioorg Med Chem Lett, 2006):

How the values were obtained:
[1] = target: T1, Receptor-type tyrosine-protein phosphatase eta (Homo sapiens, UniProt Q12913); assay: Inhibition of HPTP eta
T1 sequence (Q12913 whole entry): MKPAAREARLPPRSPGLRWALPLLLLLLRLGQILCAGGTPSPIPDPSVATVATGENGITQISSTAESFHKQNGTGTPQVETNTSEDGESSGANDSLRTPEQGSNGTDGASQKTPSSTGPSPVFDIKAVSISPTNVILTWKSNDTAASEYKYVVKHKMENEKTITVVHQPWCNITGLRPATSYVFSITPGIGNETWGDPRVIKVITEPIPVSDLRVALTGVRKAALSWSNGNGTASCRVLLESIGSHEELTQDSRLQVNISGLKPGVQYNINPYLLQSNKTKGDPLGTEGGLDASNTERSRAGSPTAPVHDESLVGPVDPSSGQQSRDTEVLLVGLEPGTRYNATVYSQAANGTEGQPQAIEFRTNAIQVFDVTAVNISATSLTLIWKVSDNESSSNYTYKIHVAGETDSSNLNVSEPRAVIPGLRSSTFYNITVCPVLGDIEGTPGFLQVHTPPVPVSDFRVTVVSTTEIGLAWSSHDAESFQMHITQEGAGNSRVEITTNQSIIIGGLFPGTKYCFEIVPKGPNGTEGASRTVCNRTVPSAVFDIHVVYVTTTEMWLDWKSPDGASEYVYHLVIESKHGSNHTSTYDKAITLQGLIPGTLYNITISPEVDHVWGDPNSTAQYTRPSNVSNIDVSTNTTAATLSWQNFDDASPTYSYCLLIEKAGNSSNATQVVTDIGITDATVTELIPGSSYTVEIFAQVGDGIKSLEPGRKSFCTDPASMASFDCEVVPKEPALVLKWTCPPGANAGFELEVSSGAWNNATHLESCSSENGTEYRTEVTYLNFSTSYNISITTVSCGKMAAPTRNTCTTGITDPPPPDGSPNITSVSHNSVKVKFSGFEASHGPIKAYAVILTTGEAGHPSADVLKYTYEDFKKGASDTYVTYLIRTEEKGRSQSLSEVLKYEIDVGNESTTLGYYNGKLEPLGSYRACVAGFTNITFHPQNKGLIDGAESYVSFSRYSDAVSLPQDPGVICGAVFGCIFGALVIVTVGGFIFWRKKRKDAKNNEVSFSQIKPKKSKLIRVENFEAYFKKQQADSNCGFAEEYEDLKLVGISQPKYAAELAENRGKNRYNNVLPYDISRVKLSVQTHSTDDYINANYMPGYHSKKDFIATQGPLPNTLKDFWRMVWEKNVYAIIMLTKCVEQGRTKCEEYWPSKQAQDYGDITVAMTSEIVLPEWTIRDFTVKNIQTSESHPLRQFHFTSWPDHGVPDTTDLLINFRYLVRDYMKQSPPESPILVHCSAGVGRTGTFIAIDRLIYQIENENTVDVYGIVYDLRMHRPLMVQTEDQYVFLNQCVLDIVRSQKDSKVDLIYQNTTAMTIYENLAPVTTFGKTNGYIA

[2] = target: T2, Tyrosine-protein phosphatase non-receptor type 11 (Homo sapiens, UniProt Q06124); assay: Inhibition of SHP2
T2 sequence (Q06124 whole entry): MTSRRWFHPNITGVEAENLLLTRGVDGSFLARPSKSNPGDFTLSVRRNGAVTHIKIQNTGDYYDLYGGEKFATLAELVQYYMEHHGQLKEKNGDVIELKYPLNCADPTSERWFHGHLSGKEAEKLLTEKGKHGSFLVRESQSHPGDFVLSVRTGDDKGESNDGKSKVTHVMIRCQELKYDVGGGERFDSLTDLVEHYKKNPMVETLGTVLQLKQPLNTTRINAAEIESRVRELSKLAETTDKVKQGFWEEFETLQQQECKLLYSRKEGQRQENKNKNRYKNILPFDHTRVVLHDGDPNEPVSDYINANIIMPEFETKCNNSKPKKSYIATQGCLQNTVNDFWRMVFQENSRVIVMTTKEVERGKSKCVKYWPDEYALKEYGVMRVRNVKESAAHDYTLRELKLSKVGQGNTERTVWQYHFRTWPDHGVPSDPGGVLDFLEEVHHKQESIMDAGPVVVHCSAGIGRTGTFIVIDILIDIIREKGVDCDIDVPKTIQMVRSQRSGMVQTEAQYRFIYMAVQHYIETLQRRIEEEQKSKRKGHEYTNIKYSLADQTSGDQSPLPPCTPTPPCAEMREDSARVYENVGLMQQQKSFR

[3] = target: Receptor-type tyrosine-protein phosphatase gamma (Homo sapiens, UniProt P23470); assay: Inhibition of PTP gamma
Chain of Receptor-type tyrosine-protein phosphatase gamma (P23470 whole entry): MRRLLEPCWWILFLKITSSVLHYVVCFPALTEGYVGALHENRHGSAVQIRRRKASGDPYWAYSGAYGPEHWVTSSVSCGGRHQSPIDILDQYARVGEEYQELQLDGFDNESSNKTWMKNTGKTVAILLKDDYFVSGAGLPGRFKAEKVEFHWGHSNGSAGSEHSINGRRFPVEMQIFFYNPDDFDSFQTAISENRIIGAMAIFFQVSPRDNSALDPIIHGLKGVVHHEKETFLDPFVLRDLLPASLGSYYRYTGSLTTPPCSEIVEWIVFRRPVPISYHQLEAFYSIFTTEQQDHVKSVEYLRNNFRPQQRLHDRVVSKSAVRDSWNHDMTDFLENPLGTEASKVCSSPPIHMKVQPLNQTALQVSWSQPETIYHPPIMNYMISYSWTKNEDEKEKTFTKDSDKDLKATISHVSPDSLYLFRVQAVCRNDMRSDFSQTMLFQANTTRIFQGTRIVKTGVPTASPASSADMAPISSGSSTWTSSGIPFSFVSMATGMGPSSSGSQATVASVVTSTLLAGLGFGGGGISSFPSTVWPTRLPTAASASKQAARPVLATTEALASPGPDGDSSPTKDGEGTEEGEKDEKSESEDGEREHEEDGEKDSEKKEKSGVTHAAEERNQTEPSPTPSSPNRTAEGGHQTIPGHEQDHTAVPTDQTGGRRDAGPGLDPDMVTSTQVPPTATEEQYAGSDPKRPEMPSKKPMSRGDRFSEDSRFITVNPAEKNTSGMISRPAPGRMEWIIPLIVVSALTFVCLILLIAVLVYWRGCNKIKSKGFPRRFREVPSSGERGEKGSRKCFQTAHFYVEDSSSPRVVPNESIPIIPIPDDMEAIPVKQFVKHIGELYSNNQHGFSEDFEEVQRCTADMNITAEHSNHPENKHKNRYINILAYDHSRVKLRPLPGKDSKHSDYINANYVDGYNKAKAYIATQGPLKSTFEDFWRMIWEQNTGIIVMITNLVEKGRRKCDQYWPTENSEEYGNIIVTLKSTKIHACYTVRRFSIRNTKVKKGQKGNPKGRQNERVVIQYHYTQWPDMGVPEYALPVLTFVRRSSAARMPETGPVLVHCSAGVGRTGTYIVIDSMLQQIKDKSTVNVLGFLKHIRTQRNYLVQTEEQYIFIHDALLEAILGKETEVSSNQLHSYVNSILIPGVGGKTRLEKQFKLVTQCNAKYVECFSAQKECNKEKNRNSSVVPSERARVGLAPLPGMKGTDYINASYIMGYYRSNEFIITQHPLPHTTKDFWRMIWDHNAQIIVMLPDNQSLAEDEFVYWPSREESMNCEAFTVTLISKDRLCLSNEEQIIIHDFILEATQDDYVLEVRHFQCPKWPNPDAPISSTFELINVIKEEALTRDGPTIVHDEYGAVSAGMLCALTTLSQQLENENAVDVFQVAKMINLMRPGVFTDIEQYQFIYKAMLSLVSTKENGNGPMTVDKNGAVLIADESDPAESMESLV

IC50 [1]: 150 µM
IC50 [2]: > 500 µM
IC50 [3]: > 500 µM
Structure (SMILES): CNC(=O)[C@@H]1Cc2ccc(NS(=O)(=O)O)cc2CN1C(=O)CCc1cccc(NS(=O)(=O)O)c1
